Measurements reported in paper PMC9575004 (Journal of Molecular Structure, 2022).

How the values were obtained:
human recombinant COX-2 = target: T1, human recombinant COX-2 (Homo sapiens, UniProt P35354); assay: In vitro COX-2 inhibition, enzyme immunoassay; type: biochemical; details: for COX-2 S. I. (in vitro COX-2 selectivity index, COX-1/COX-2): ratio COX-1 IC50/COX-2 IC50
T1 sequence (P35354 18-604): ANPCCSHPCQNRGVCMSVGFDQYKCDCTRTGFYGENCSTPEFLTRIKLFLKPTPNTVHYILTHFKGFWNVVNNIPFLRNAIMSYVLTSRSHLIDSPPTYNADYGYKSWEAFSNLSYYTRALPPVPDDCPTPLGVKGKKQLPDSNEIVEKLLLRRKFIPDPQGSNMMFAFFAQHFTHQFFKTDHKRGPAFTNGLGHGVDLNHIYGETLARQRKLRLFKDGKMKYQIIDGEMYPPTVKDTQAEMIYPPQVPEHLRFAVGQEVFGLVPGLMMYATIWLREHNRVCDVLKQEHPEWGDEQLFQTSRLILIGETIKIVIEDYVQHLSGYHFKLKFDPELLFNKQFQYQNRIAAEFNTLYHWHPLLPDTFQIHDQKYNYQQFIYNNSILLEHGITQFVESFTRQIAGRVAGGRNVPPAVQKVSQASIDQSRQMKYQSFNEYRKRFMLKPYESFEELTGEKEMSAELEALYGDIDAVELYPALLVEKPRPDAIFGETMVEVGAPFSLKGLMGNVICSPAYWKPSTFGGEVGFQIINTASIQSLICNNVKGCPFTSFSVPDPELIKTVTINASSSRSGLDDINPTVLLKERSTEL

ovine COX-1 = target: T2, ovine COX-1 (Ovis aries, UniProt P05979); assay: In vitro COX-1 inhibition, enzyme immunoassay; type: biochemical
T2 sequence (P05979 25-600): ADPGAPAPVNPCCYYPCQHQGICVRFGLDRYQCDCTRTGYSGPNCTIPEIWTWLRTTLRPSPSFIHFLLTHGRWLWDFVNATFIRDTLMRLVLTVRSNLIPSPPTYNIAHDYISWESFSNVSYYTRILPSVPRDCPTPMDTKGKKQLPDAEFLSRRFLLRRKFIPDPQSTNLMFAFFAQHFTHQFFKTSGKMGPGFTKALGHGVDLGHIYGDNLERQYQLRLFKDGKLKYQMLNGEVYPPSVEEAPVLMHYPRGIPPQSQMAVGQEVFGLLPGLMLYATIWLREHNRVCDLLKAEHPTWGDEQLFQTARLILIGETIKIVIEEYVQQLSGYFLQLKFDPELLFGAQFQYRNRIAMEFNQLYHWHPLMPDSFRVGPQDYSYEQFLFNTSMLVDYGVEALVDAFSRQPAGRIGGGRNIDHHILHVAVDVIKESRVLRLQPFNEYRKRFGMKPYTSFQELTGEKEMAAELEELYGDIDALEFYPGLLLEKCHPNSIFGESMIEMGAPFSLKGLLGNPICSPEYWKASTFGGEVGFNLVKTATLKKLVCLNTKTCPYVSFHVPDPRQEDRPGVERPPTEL

| SMILES | IC50 (human recombinant COX-2) [µM] | COX-2 S. I. (in vitro COX-2 selectivity index, COX-1/COX-2) (human recombinant COX-2) | IC50 (ovine COX-1) [µM] |
| --- | --- | --- | --- |
| CCCCCCCCCCCC1=C(O)C(=O)C=C(O)C1=O [Compound 1, 2,5-dihydroxy-3-undecyl-1,4-benzoquinone] | 2.98 | 2.15 | 6.42 |
| CCCCCCCCCCCC1=C(O)C(=O)C=C(NC)C1=O [Compound 2, 2-Hydroxy-5-(methylamino)-3-undecylcyclohexa-2,5-diene-1,4-dione] | 3.1 | 2.11 | 6.54 |
| CCCCCCCCCCCC1=C(O)C(=O)C=C(NCCN(C)C)C1=O [Compound 3, 5-(2-(Dimethylamino)ethylamino)-2-hydroxy-3-undecylcyclohexa-2,5-diene-1,4-dione] | 1.65 | 2.17 | 3.58 |
| CCCCCCCCCCCC1=C(O)C(=N/C)/C=C(O)C/1=N/C [Compound 5, (3E, 6E)-3,6-bis(Methylimino)-2-undecylcyclohexa-1,4-diene-1,4-diol] | 2.56 | 2.98 | 7.65 |
| CCCCCCCCCCCC1=C(O)C(=N/CC)/C=C(O)C/1=N/CC [Compound 6, (3E, 6E)-3,6-bis(Ethylimino)-2-undecylcyclohexa-1,4-diene-1,4-diol] | 2.15 | 3.18 | 6.85 |
| CCCCCCCCCCCc1c2oc3cccnc3nc-2cc(O)c1=O [Compound 7, 8-hydroxy-6-undecyl-7H-benzo[b]pyrido[2,3-e][1,4]oxazin-7-one] | 1.56 | 2.04 | 3.19 |
| CCCCCCCCCCCC1=C(OC(C)=O)C(=O)C=C(OC(C)=O)C1=O [Compound 8, 3,6-Dioxo-2-undecylcyclohexa-1,4-diene-1,4-diyl diacetate] | 1.23 | 1.83 | 2.25 |
